# In patent US7125662B2, “Method of identifying putative antibiotic resistance genes” (priority 2000, dated 2006):
# How the values were obtained:
# No Plasmid host = test: MIC, host with no plasmid (Table 1); assay type: cell-based
# From the text: (§1) The plasmid-borne ampC genes shown in Table 1 (below) have been cloned into a common vector to ensure that all genes are expressed at the same level.
# [1] = tested on: host expressing Citrobacter freundii ampC gene CMY2; test: MIC conferred by ampC gene CMY2 cloned into common vector; assay type: cell-based
# From the text: (§2) The plasmid-borne ampC genes shown in Table 1 (below) have been cloned into a common vector to ensure that all genes are expressed at the same level. […] That is completely expected because those genes were isolated from clinical samples and identified on the basis of conferring resistance to clinical drugs. ampC genes from two strains of Citrobacter freundii that were isolated in the 1920's, in the pre-antibiotic era, were also cloned into the same vector.
# [2] = tested on: host expressing Citrobacter freundii ampC gene CMY3b; test: MIC conferred by ampC gene CMY3b cloned into common vector; assay type: cell-based
# From the text: as §2
# [3] = tested on: host expressing Citrobacter freundii ampC gene LAT1; test: MIC conferred by ampC gene LAT1 cloned into common vector; assay type: cell-based
# From the text: as §2
# [4] = tested on: host expressing Citrobacter freundii ampC gene LAT2; test: MIC conferred by ampC gene LAT2 cloned into common vector; assay type: cell-based
# From the text: as §2
# [5] = tested on: host expressing Citrobacter freundii ampC gene LAT3; test: MIC conferred by ampC gene LAT3 cloned into common vector; assay type: cell-based
# From the text: as §2
# [6] = tested on: host expressing Citrobacter freundii ampC gene LAT4; test: MIC conferred by ampC gene LAT4 cloned into common vector; assay type: cell-based
# From the text: as §2
# [7] = tested on: host expressing Citrobacter freundii ampC gene Cfre6879; test: MIC conferred by ampC gene Cfre6879 cloned into common vector; assay type: cell-based; details: Cfre 6879, gene from organism isolated in the 1920's
# From the text: as §2
# [8] = tested on: host expressing Citrobacter freundii ampC gene Cfre8454; test: MIC conferred by ampC gene Cfre8454 cloned into common vector; assay type: cell-based; details: Cfre 8454, gene from organism isolated in the 1920's
# From the text: as §2
# [9] = tested on: plasmid-borne ampC genes CMY-2, CMY-3b, LAT-1, LAT-2, LAT-3, and LAT-4; test: Clinical resistance conferred by plasmid-borne ampC genes as a group; assay type: cell-based, Citrobacter freundii; details: all of CMY-2, CMY-3b, LAT-1, LAT-2, LAT-3, LAT-4
# From the text: as §1
# [10] = Table 1, β-lactams; unit assumed; cited from earlier work
# E. coli K12 ampC = details: gene cloned into a plasmid, effective promoter; cited from earlier work
compound,measurement,setting,value
CC(=O)OCC1=C(C(=O)O)N2C(=O)[C@@H](NC(=O)Cc3cccs3)[C@H]2SC1 [Cephalothin],Minimum Inhibitory Concentration (MIC),No Plasmid host,4
same,Minimum Inhibitory Concentration (MIC),[1],1024
same,Minimum Inhibitory Concentration (MIC),[2],2048
same,Minimum Inhibitory Concentration (MIC),[3],4096
same,Minimum Inhibitory Concentration (MIC),[4],4096
same,Minimum Inhibitory Concentration (MIC),[5],2048
same,Minimum Inhibitory Concentration (MIC),[6],4096
same,Minimum Inhibitory Concentration (MIC),[7],1024
same,Minimum Inhibitory Concentration (MIC),[8],2048
same,clinical resistance conferred,[9],confer clinical resistance
same,Clin. = the MIC for clinical resistance,[10],32 µg/mL
same,clinical resistance conferred,E. coli K12 ampC,confers clinical resistance
